Active and inactive are the calls of the source.
Experiments:
[1] = biological target: Cyclin-dependent kinase 2 (Homo sapiens, UniProt P24941); experiment: inhibition of human CDK2/cyclin A – biochemical, cherry-picked samples, selectivity assay for Dyrk1A inhibitor project, dose response (AID 602127)
[2] = biological target: Dual specificity protein kinase CLK1 (Homo sapiens, UniProt P49759); experiment: inhibition of human CLK1 activity – biochemical, cherry-picked samples, selectivity assay for Dyrk1A inhibitor project, dose response (AID 588811)
Dual specificity protein kinase CLK1, sequence (P49759 whole entry): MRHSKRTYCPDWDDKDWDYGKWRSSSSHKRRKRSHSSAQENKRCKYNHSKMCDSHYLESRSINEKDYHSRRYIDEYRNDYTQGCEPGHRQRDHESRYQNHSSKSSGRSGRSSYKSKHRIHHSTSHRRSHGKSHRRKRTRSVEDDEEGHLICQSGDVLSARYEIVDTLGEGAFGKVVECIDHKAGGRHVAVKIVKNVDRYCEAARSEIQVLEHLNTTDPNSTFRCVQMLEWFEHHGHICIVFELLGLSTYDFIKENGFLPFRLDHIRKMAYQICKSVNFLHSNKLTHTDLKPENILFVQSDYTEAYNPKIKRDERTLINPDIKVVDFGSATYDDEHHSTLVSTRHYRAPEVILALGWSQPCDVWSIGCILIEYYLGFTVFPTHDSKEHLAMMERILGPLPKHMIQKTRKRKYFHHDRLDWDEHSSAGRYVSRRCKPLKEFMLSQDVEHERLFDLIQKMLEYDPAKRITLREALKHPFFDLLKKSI

INS1 [3] = experiment: beta-cell survival under cytokine stress – INS-1E, ATP luminescence, dry powder, dose response (AID 488844); type: functional, cell-based; details: Rattus norvegicus
INS1 [4] = experiment: INS-1E mitochondrial potential rescue under cytokines – cell-based, JC-1 fluorescence ratio, dry powder, dose response (AID 488931); type: functional; details: Rattus norvegicus
[5] = biological target: T1, Short transient receptor potential channel 4 (Mus musculus, UniProt Q9QUQ5); experiment: SAR Analysis for the identification of selective inhibits of the transient receptor potential cation channel C4 (TRPC4): Automated Electrophysiology. [Related pubchem assays (depositor defined):AID2256]; type: functional
T1 sequence (Q9QUQ5 whole entry): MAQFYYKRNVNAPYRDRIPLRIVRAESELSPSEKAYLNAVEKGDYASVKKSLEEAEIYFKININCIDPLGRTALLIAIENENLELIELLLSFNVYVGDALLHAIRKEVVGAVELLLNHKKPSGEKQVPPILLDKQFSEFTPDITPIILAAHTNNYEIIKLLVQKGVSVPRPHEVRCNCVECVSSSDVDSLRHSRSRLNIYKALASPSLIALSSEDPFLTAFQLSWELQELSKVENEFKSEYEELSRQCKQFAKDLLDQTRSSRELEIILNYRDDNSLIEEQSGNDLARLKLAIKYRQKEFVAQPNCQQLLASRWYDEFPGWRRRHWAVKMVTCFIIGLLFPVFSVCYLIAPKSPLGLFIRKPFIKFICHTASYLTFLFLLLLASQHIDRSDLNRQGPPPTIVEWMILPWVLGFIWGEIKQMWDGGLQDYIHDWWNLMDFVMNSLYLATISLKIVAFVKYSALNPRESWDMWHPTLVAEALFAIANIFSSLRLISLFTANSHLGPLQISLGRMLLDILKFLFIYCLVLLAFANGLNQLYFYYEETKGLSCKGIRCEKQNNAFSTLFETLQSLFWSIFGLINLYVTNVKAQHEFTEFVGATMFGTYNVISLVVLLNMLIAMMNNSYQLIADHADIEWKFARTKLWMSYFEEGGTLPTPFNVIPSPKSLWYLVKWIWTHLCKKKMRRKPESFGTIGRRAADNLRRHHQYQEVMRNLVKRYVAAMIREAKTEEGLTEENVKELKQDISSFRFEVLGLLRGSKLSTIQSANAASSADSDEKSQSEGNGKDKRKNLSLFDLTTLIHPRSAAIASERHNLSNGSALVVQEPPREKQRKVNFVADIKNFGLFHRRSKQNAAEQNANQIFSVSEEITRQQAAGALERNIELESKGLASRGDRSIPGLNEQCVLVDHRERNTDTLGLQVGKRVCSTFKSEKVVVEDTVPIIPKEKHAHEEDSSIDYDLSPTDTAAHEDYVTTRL

[6] = biological target: Short transient receptor potential channel 6 (Mus musculus, UniProt Q61143); experiment: mouse TRPC6 channel blockers, concentration series – HEK293 cells, membrane potential dye, IC50, selectivity assay for selective TRPC4 inhibitor project, dose response (AID 492987); type: functional, cell-based
Short transient receptor potential channel 6, sequence (Q61143 whole entry): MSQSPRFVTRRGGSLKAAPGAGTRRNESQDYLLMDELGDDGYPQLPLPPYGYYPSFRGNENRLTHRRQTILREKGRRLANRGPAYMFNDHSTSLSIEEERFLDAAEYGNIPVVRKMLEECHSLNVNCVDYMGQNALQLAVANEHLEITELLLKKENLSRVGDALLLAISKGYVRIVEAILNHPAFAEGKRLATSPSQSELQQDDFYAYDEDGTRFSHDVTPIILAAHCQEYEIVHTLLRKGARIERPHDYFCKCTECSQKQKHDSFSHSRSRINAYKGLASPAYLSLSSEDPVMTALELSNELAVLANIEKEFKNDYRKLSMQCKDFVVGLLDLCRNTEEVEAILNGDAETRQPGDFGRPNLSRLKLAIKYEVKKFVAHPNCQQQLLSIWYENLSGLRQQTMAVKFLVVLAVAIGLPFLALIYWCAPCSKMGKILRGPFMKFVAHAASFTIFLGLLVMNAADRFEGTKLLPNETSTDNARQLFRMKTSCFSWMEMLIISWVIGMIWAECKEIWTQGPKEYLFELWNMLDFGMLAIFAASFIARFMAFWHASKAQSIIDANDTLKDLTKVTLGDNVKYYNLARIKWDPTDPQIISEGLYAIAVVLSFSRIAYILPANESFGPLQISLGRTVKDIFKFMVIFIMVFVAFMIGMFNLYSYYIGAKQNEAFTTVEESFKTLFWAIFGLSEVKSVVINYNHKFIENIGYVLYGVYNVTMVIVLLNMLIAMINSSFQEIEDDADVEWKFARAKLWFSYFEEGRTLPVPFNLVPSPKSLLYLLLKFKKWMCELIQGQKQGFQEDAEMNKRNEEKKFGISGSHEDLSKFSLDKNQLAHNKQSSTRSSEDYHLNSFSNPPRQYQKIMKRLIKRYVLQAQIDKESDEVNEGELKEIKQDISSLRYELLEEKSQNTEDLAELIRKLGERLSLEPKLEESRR

[7] = biological target: T1, Short transient receptor potential channel 4; experiment: potency of mouse TRPC4 calcium flux blockers – cell-based, HEK293 TRPC4/mu-opioid, DAMGO stimulus, Fluo-4, dose response (AID 492994); type: functional
BJ [8] = experiment: BJ-TERT fibroblast viability loss – cell-based, RAS-independent, luminescence, dose response (AID 1933); type: functional; details: Homo sapiens
BJ [9] = experiment: cells; type: functional, cell-based; details: Homo sapiens
BJ [10] = experiment: BJ-TERT-LT-ST fibroblast viability loss – cell-based, RAS-independent, luminescence, dose response (AID 1935); type: functional; details: Homo sapiens;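 note: BJ fibroblasts immortalized with TERT plus LT and ST oncogenes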
[11] = DRD fibroblast viability loss – cell-based, non-viral oncogenic, luminescence, dose response (AID 1934); type: functional; details: Homo sapiens
CHO-K1 = experiment: (§1) Counterscreen for antagonists of the orexin 1 receptor (OX1R; HCRTR1): Homogeneous time resolved fluorescence (HTRF)-based cell-based dose response assay to identify antagonists of the parental CHO-K1 cell line. [Related pubchem assays (depositor defined):AID434989, AID435008, AID463079, AID485270, AID492963, AID492964, AID492965, AID493232, AID504699, AID504701]; type: functional; details: Cricetulus griseus
[12] = as §1, with “Fluorescence-based” for “Homogeneous time resolved fluorescence (HTRF)-based”, “cell-based high throughput” for “cell-based”, “CHO” for “CHO-K1”; type: functional
[13] = biological target: T2, Orexin/Hypocretin receptor type 1 (Homo sapiens, UniProt O43613); experiment: Homogeneous Time Resolved Fluorescence (HTRF)-based cell-based high throughput dose response assay for antagonists of the orexin 1 receptor (OX1R; HCRTR1). [Related pubchem assays (depositor defined):AID434989, AID435008, AID463079, AID485270, AID492963, AID492964, AID492965, AID493232, AID504717, AID504718]; type: functional
T2 sequence (O43613 whole entry): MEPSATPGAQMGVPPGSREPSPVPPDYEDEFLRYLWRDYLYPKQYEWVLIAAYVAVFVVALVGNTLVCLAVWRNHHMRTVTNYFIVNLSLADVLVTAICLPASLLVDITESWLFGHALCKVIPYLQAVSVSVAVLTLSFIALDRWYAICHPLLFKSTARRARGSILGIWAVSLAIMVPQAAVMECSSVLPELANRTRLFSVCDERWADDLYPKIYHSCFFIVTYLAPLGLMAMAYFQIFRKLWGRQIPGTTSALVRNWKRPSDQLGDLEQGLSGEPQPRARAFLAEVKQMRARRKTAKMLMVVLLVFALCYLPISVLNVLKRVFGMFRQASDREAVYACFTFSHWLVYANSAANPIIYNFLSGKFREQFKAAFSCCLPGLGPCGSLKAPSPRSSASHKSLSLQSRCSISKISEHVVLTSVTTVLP

[14] = biological target: T2, Orexin/Hypocretin receptor type 1; experiment: Fluorescence-based cell-based high throughput dose response assay for antagonists of the orexin 1 receptor (OX1R; HCRTR1). [Related pubchem assays (depositor defined):AID434989, AID435008, AID463079, AID485270, AID492963, AID492964, AID492965, AID493232, AID504717, AID504718]; type: functional
Orexin receptor type 2 [15] = biological target: T3, Orexin receptor type 2 (Homo sapiens, UniProt O43614); experiment: Counterscreen assay for antagonists of the orexin 1 receptor (OX1R; HCRTR1): Fluorescence-based cell-based dose response assay for antagonists of the orexin 2 receptor (OX2R; HCRTR2), run by assay provider.; type: functional
T3 sequence (O43614 whole entry): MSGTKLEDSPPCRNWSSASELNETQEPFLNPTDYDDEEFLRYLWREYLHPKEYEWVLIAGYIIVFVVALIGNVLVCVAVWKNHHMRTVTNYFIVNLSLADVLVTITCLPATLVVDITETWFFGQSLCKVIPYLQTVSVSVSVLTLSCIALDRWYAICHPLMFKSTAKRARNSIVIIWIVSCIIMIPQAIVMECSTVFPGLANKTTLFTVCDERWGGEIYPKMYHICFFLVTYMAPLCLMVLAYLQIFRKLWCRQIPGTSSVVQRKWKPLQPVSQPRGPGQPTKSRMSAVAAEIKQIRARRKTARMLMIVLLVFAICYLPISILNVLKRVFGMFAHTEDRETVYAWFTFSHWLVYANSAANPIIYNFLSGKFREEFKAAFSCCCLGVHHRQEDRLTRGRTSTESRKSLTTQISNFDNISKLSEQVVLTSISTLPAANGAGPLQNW

Orexin receptor type 2 [16] = biological target: T3, Orexin receptor type 2; experiment: Counterscreen assay for antagonists of the orexin 1 receptor (OX1R; HCRTR1): Homogeneous Time Resolved Fluorescence (HTRF)-based cell-based dose response assay for antagonists of the orexin 2 receptor (OX2R; HCRTR2), run by assay provider.; type: functional
[17] = viability loss in Vero cells – cytotoxicity control for Vif-APOBEC3G degradation inhibitor project, dose response (AID 1117358); type: functional; details: Vero
[18] = tested on: Streptococcus sp. 'group A'; experiment: Streptococcus pyogenes SK(-)GAS viability under kanamycin – luminescence, BacTiterGlo, confirmation, counter-screen for streptokinase expression inhibitor project, dose response (AID 1900); type: functional, organism-based
[19] = biological target: Induced myeloid leukemia cell differentiation protein Mcl-1 (Homo sapiens, UniProt Q07820); type: functional
Induced myeloid leukemia cell differentiation protein Mcl-1, sequence (Q07820 whole entry): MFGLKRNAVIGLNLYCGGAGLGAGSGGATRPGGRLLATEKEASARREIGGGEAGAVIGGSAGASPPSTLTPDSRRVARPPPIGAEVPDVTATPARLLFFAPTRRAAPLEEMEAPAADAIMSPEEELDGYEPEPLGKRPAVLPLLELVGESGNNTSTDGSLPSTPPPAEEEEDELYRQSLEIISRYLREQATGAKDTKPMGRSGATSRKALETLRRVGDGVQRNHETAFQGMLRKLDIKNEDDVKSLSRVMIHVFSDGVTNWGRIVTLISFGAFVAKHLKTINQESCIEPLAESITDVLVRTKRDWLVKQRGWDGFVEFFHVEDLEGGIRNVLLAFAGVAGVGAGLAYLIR

Streptococcus = experiment: GAS UMAA2166 growth inhibition – luminescence, BacTiterGlo, counter-screen for streptokinase expression inhibitor project, dose response (AID 1915); type: functional, organism-based;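 note: potency for reduction of bacterial viability or growth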
[20] = biological target: T4, Apoptotic protease-activating factor 1 (Homo sapiens, UniProt O14727); experiment: activation of Apaf-1 mediated apoptosis – fluorescent, uHTS hits, dose response (AID 588554); type: functional
T4 sequence (O14727 whole entry): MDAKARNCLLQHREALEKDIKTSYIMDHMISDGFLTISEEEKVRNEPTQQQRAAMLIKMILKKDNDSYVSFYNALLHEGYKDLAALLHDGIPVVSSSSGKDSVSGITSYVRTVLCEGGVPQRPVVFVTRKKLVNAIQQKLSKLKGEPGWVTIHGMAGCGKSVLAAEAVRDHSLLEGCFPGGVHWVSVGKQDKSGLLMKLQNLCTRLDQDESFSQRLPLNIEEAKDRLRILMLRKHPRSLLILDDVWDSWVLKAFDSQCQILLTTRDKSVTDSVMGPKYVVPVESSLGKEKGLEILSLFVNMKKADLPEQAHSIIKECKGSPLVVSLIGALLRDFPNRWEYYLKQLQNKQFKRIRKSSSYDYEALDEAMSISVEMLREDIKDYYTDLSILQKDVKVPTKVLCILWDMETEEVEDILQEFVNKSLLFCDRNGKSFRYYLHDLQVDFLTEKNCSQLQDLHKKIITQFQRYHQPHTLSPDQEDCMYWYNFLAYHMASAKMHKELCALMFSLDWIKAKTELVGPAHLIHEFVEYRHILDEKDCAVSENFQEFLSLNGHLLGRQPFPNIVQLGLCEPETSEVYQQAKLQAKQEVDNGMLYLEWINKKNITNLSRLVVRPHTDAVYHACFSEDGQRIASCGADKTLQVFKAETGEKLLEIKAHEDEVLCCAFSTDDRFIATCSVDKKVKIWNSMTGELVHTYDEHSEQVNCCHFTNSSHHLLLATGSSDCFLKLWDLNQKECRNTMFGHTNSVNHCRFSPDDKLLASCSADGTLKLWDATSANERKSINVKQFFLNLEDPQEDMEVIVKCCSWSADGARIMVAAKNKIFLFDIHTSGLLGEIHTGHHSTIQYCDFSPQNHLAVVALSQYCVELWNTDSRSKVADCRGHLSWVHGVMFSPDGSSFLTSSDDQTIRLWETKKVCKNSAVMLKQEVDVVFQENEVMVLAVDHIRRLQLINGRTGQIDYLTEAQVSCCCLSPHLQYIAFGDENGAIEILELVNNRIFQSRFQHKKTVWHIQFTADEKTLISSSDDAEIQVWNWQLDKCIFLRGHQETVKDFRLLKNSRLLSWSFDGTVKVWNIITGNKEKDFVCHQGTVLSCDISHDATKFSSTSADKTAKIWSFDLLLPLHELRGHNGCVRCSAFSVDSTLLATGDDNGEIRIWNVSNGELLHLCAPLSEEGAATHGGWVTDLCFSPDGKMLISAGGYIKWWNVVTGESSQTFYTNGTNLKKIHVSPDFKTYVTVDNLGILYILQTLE

[21] = biological target: 26S proteasome non-ATPase regulatory subunit 14 (Homo sapiens, UniProt O00487); experiment: inhibition of proteasome subunit RPN11 – biochemical, fluorescence polarization, uHTS hits, confirmation (AID 602368); type: functional
26S proteasome non-ATPase regulatory subunit 14, sequence (O00487 whole entry): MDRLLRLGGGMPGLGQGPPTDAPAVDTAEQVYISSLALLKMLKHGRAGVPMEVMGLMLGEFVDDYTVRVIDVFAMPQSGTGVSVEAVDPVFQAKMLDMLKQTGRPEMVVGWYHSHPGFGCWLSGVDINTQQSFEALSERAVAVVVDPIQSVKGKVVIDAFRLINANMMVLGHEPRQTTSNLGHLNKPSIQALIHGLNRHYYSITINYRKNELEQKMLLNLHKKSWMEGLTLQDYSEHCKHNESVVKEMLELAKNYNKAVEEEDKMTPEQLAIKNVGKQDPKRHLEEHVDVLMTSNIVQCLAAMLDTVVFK

[22] = biological target: 72 kDa type IV collagenase (Homo sapiens, UniProt P08253); experiment: Dose Response validation of uHTS RPN11 inhibitor hits using a MMP-2 Fluorescence assay.; type: functional
72 kDa type IV collagenase, sequence (P08253 whole entry): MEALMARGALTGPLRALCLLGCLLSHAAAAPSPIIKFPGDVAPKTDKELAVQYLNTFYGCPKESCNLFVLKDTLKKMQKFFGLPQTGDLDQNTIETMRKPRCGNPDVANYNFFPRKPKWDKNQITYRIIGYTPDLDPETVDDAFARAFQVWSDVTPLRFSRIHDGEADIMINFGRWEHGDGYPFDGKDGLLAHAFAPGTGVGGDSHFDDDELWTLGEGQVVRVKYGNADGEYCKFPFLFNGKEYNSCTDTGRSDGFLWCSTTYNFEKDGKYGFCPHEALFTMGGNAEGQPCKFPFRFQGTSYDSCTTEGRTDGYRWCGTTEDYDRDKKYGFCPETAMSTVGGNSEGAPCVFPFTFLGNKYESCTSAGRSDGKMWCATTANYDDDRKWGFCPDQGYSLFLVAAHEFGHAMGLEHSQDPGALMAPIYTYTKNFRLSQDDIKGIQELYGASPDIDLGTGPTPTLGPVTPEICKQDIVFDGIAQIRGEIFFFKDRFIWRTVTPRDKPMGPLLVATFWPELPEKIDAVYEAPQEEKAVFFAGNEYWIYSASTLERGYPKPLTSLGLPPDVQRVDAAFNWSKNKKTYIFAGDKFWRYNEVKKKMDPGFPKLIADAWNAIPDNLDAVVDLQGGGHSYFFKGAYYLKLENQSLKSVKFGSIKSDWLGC

Prothrombin = Prothrombin (Bos taurus, UniProt P00735); experiment: thrombin protease inhibitors – biochemical, fluorescence polarization, uHTS hits, dose response (AID 602369); type: functional
[23] = biological target: Dual specificity protein phosphatase 3 (Homo sapiens, UniProt P51452); experiment: SAR VHR1 Fluorescent Assay for In Vitro dose response studies Set 3. [Related pubchem assays (depositor defined):AID1654, AID1661, AID1878]; type: functional
Dual specificity protein phosphatase 3, sequence (P51452 whole entry): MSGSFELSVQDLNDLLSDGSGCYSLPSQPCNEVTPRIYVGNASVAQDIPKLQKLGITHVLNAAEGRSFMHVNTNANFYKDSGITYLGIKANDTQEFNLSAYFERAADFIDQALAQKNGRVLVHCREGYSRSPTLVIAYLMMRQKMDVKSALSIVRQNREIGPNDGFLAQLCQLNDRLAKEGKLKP

Compound: c1cncc(CNc2nccc(-c3ccc4c(c3)OCO4)n2)c1
- AC50 [1]: 14.3 µM (active)
- AC50 [2]: 0.00791 µM (active)

Compound: COc1ccc(S(=O)(=O)N(C)C[C@@H]2Oc3c(NC(=O)Nc4cccc5ccccc45)cccc3C(=O)N([C@@H](C)CO)C[C@@H]2C)cc1
- AC50 (INS1 [3]): 37.6 µM (active)
- AC50 (INS1 [4]): 48 µM (active)

Compound: Cc1ccc2nc(N3CCCCC3)cc(C)c2c1
- IC50 [5]: 5.49 µM (active)
- IC50 [6]: 8.58 µM (active)
- IC50 [7]: 10.2 µM (active)

Compound: Cc1nn(-c2ccccc2)c(C)c1/C=N/NC(=O)c1cc(-c2ccccc2)[nH]n1
- EC50 (BJ [8]): 0.308 µM (active)
- EC50 (BJ [9]): 37.5 µM (inconclusive)
- EC50 (BJ [10]): > 150 µM (inconclusive)
- EC50 [11]: 0.659 µM (inconclusive)
- IC50 (CHO-K1): > 66.2 µM (inactive)
- IC50 [12]: > 49.8 µM (inactive)
- IC50 [13]: 1.75 µM (active)
- IC50 [14]: 3.67 µM (active)
- IC50 (Orexin receptor type 2 [15]): 20.6 µM (inactive)
- IC50 (Orexin receptor type 2 [16]): 18.8 µM (inactive)
- CC50 [17]: 8.77 µM (active)

Compound: O=C(O)CCCN1C(=O)/C(=C\c2ccc(-c3nc4ccccc4s3)o2)SC1=S
- EC50 [18]: 3.67 µM (active)
- IC50 [19]: 1.38 µM (active)
- EC50 (Streptococcus): 7.32 µM (active)
- EC50 [20]: 5.12 µM (active)
- IC50 [21]: 5.31 µM (active)
- IC50 [22]: > 100 µM (inactive)
- IC50 (Prothrombin): 70.3 µM (active)

Compound: COc1cccc2sc(NC(=O)c3ccc(C#N)cc3)nc12
- IC50 [23]: 57.6 µM (active)
